Experimental data from ChEMBL document CHEMBL4616597, “Could 5'-N and S ProTide analogues work as prodrugs of antiviral agents?” (Bioorg Med Chem Lett, 2020).
The source made the active and inactive calls. The rule behind the calls is not given here.

Experiments:
[1] = Prodrug activation assessed as carboxypeptidase Y (unknown origin) mediated signal shift at 13.5 ppm by P-NMR spectroscopy; conditions: human
Coxsackievirus = assay: Antiviral activity against CVB3; type: functional, organism-based; conditions: B3
[2] = Prodrug activation assessed as carboxypeptidase Y (unknown origin) mediated cleavage of diastereoisomer measured after 5 mins by P-NMR spectroscopy; conditions: human
[3] = tested on: Human immunodeficiency virus; assay: Antiviral activity against HIV; type: functional, organism-based
[4] = Prodrug activation assessed as carboxypeptidase Y (unknown origin) mediated metabolite formation at 3.3 ppm by P-NMR spectroscopy; type: ADME; conditions: human
[5] = Prodrug activation in human HepG2 cell extract assessed as metabolite formation at 100 uM measured after 4 hrs by HPLC analysis; type: ADME, cell-based; conditions: hepg2, 4 h
West Nile virus = assay: Antiviral activity against West Nile virus; type: functional, organism-based
[6] = Prodrug activation assessed as carboxypeptidase Y (unknown origin) mediated signal shift at 13.2 ppm by P-NMR spectroscopy; conditions: human
Zika virus = assay: Antiviral activity against Zika virus; type: functional, organism-based
Dengue virus = assay: Antiviral activity against Dengue virus; type: functional, organism-based
[7] = Prodrug activation assessed as carboxypeptidase Y (unknown origin) mediated formation of metabolite from (2S)-2-((((2R,3R,4R,5R)-5-(6-amino-9H-purin-9-yl)-3,4-dihydroxy-4-methyltetrahydrofuran-2-yl)methylamino)(phenoxy)phosphorylamino)propanoic acid intermediate at 3.3 ppm by P-NMR spectroscopy; type: ADME; conditions: human
[8] = Prodrug activation assessed as carboxypeptidase Y (unknown origin) mediated (2S)-2-((((2R,3R,4R,5R)-5-(6-amino-9H-purin-9-yl)-3,4-dihydroxy-4-methyltetrahydrofuran-2-yl)methylamino)(phenoxy)phosphorylamino)propanoic acid intermediate formation measured after 5 mins by P-NMR spectroscopy; conditions: human
[9] = Prodrug activation assessed as carboxypeptidase Y (unknown origin) mediated cleavage of diastereoisomer measured after 120 mins by P-NMR spectroscopy; conditions: human, 2 h
[10] = tested on: Tick-borne encephalitis virus; assay: Antiviral activity against TBEV; type: functional, organism-based
[11] = Prodrug activation assessed as carboxypeptidase Y (unknown origin) mediated cleavage at phenyl region resulting in formation of (2S)-2-[[hydroxy(phenoxy)phosphoryl]amino]propanoic acid measured after 120 mins by 13C-APT spectra analysis; conditions: human, 2 h
[12] = Prodrug activation assessed as carboxypeptidase Y (unknown origin) mediated metabolite formation at 3.1 ppm measured after 5 mins by P-NMR spectroscopy; type: ADME; conditions: human
[13] = Prodrug activation assessed as carboxypeptidase Y (unknown origin) mediated cleavage at ribose sugar region resulting in formation of 2R,3R,4R,5S)-2-(6-aminopurin-9-yl)-3-methyl-5-(sulfanylmethyl)tetrahydrofuran-3,4-diol measured after 120 mins by 13C-APT spectra analysis; conditions: human, 2 h
[14] = Prodrug activation assessed as carboxypeptidase Y (unknown origin) mediated intermediate metabolite formation by P-NMR spectroscopy; type: ADME; conditions: human

Row | Structure (SMILES) | Activity [1] | Activity (Coxsackievirus) | Activity [2] | Activity [3] | Drug metabolism [4] | Drug metabolism [5] | Activity (West Nile virus) | Activity [6] | Activity (Zika virus) | Activity (Dengue virus) | Drug metabolism [7] | Drug metabolism [8] | Activity [9] | Activity [10] | Drug metabolism [11] | Drug metabolism [12] | Drug metabolism [13] | Drug metabolism [14]
1 | COC(=O)[C@H](C)NP(=O)(NC[C@H]1O[C@@H](n2cnc3c(N)ncnc32)[C@](C)(O)[C@@H]1O)Oc1ccccc1 (some centres not stated) | Active | inactive | Not Active | inactive | Metabolite_Detected | Metabolite_Detected | inactive | Active | inactive | inactive | Metabolite_Detected | Metabolite_Detected | Not Active | inactive | – | – | – | –
2 | COC(=O)[C@H](C)NP(=O)(Oc1ccccc1)SC[C@H]1O[C@@H](n2cnc3c(N)ncnc32)[C@](C)(O)[C@@H]1O (some centres not stated) | – | inactive | Active | inactive | – | Metabolite_Detected | inactive | – | inactive | inactive | – | – | Not Active | inactive | Metabolite_Detected | Metabolite_Detected | Metabolite_Detected | Metabolite_Notdetected
